# Key:
# Format in all cases: in vivo
# [1] = test system: barnyardgrass (Echinochloa crus-galli); experiment: Test A pre-/postemergence plant response
# How it was run: (§1)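 Formulated test chemicals (non-phytotoxic solvent, surfactant) were sprayed onto soil right after planting and simultaneously onto young plants at one to two leaves, 2 to 10 cm tall. Plants stayed in the greenhouse about ten days; injury was then visually scored against untreated controls, from 0 (no effect) to 100 (complete control).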
# corn (Zea mays) = experiment: Test A pre-/postemergence plant response
# How it was run: as §1
# [2] = test system: giant foxtail (Setaria faberii); experiment: Test A pre-/postemergence plant response
# How it was run: as §1
# [3] = test system: large crabgrass (Digitaria sanguinalis); experiment: Test A pre-/postemergence plant response
# How it was run: as §1
# [4] = test system: morningglory (Ipomoea spp.); experiment: Test A pre-/postemergence plant response
# How it was run: as §1
# [5] = test system: pigweed (Amaranthus retroflexus); experiment: Test A pre-/postemergence plant response
# How it was run: as §1
# [6] = test system: velvetleaf (Abutilon theophrasti); experiment: Test A pre-/postemergence plant response
# How it was run: as §1
# [7] = test system: wheat (Triticum aestivum); experiment: Test A pre-/postemergence plant response
# How it was run: as §1
# [8] = test system: barnyardgrass (Echinochloa crus-galli); experiment: Test B flooded paddy test
# How it was run: (§2)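 Ratings are visual, 0–100 (100 = complete control), taken versus untreated controls 13 to 15 days after treatment in the greenhouse. Compound went straight into paddy water held 3 cm above soil, applied to 2-leaf-stage plants of four species.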
# [9] = test system: ducksalad (Heteranthera limosa); experiment: Test B flooded paddy test
# How it was run: as §2
# rice (Oryza sativa) = experiment: Test B flooded paddy test
# How it was run: as §2
# [10] = test system: umbrella sedge (Cyperus difformis); experiment: Test B flooded paddy test
# How it was run: as §2
# [11] = Postemergence, 125 g ai/ha, 0 to 100 scale where 0 is no effect and 100 is complete control
# [12] = Postemergence, 500 g ai/ha, 0 to 100 scale, 0 = no effect, 100 = complete control, approx. ten days
# [13] = Preemergence, 125 g ai/ha, 0 to 100 scale, 0 = no effect, 100 = complete control
# [14] = Preemergence, 500 g ai/ha, visual injury, 0 to 100 scale (0 no effect, 100 complete control), approx. ten days
# [15] = 250 g ai/ha, flooded paddy test, visual rating on 0 to 100 scale (0 no effect, 100 complete control) after 13 to 15 days
# [16] = Flood (flooded paddy test), 62 g ai/ha, scale of 0 to 100 where 0 is no effect and 100 is complete control, 13 to 15 days
structure (smiles),measurement,setting,value
COCCCn1c(-c2cc(F)cc(F)c2)ncc(C(=O)C2=C(O)CCCC2=O)c1=O [Compound 120],"Plant response rating, Barnyardgrass",[1]; [11],90
same,"Plant response rating, Barnyardgrass",[1]; [12],90
same,"Plant response rating, Barnyardgrass",[1]; [13],70
same,"Plant response rating, Barnyardgrass",[1]; [14],100
same,"Plant response rating, Corn",corn (Zea mays); [11],10
same,"Plant response rating, Corn",corn (Zea mays); [12],50
same,"Plant response rating, Corn",corn (Zea mays); [13],20
same,"Plant response rating, Corn",corn (Zea mays); [14],30
same,"Plant response rating, Foxtail, Giant",[2]; [11],80
same,"Plant response rating, Foxtail, Giant",[2]; [12],90
same,"Plant response rating, Foxtail, Giant",[2]; [13],90
same,"Plant response rating, Foxtail, Giant",[2]; [14],100
same,"Plant response rating, Crabgrass, Large",[3]; [11],90
same,"Plant response rating, Crabgrass, Large",[3]; [12],100
same,"Plant response rating, Crabgrass, Large",[3]; [13],100
same,"Plant response rating, Crabgrass, Large",[3]; [14],100
same,"Plant response rating, Morningglory",[4]; [11],100
same,"Plant response rating, Morningglory",[4]; [12],100
same,"Plant response rating, Morningglory",[4]; [13],30
same,"Plant response rating, Morningglory",[4]; [14],90
same,"Plant response rating, Pigweed",[5]; [11],90
same,"Plant response rating, Pigweed",[5]; [12],100
same,"Plant response rating, Pigweed",[5]; [13],100
same,"Plant response rating, Pigweed",[5]; [14],100
same,"Plant response rating, Velvetleaf",[6]; [11],100
same,"Plant response rating, Velvetleaf",[6]; [12],100
same,"Plant response rating, Velvetleaf",[6]; [13],80
same,"Plant response rating, Velvetleaf",[6]; [14],100
same,"Plant response rating, Wheat",[7]; [11],20
same,"Plant response rating, Wheat",[7]; [12],70
same,"Plant response rating, Wheat",[7]; [13],0
same,"Plant response rating, Wheat",[7]; [14],70
same,"Plant response rating, Flood, Barnyardgrass",[8]; [15],65
same,"Plant response rating, Barnyardgrass",[8]; [16],20
same,"Plant response rating, Flood, Ducksalad",[9]; [15],85
same,"Plant response rating, Ducksalad",[9]; [16],30
same,"Plant response rating, Flood, Rice",rice (Oryza sativa); [15],40
same,"Plant response rating, Rice",rice (Oryza sativa); [16],0
same,"Plant response rating, Flood, Sedge, Umbrella",[10]; [15],75
same,"Plant response rating, Sedge, Umbrella",[10]; [16],40
